The values below come from patent publication US20090298820A1, “3-SUBSTITUTED-1H-PYRROLO[2,3-B]PYRIDINE AND 3-SUBSTITUTED-1H-PYRROLO[3,2-B]PYRIDINE COMPOUNDS, THEIR USE AS MTOR KINASE AND PI3 KINASE INHIBITORS, AND THEIR SYNTHESES” (Wyeth, priority 2008, published 2009).

One data set has as its target PI3Kα (Homo sapiens, UniProt P42336). The data set is described as follows: PI3K-alpha fluorescence polarization assay. The data set is classed as biochemical. Conditions: read-out: PI3Kα Median IC50.
The next data set has as its target mTOR (Homo sapiens, UniProt P42345). The data set is described as follows: mTOR enzyme assay (DELFIA format, His6-S6K substrate). Format: biochemical. Conditions: read-out: mTOR Kinase Median IC50.
For another data set, the target named is PI3Kγ (Homo sapiens, UniProt P48736). Put plainly: PI3K-gamma fluorescence polarization assay. Format: biochemical. Particulars: read-out: PI3Kγ Median IC50.
PI3Kγ, sequence (P48736 whole entry, species assumed): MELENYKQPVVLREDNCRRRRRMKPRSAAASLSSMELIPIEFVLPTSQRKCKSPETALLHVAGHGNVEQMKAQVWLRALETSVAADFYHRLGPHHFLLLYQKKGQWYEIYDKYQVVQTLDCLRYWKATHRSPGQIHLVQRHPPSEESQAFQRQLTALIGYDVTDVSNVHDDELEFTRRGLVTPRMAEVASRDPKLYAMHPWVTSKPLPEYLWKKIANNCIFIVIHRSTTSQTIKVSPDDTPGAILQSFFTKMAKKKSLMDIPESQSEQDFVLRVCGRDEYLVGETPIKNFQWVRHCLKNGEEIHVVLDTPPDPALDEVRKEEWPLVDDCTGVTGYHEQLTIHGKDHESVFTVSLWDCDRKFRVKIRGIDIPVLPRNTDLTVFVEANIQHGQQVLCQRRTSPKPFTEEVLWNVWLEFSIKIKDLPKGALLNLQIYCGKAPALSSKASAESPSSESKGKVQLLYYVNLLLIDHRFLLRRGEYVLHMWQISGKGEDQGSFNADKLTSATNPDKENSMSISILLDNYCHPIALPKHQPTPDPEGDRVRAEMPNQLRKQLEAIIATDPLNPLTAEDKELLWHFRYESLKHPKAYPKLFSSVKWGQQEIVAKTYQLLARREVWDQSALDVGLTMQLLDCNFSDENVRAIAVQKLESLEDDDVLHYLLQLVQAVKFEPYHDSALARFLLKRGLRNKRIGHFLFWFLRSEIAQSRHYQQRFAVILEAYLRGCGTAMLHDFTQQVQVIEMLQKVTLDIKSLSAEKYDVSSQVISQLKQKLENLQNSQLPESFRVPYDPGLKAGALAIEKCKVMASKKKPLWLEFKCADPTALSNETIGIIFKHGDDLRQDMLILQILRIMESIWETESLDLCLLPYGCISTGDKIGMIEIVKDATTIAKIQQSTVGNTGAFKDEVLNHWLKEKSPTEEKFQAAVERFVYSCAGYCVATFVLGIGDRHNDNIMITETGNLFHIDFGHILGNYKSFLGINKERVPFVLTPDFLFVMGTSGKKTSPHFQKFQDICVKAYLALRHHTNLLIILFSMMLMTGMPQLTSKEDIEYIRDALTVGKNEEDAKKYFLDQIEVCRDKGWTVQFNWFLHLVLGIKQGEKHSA

Each structure is given as a SMILES string. pIC50: −log10 of the molar value.

PI3Kα, sequence (P42336 whole entry, species assumed): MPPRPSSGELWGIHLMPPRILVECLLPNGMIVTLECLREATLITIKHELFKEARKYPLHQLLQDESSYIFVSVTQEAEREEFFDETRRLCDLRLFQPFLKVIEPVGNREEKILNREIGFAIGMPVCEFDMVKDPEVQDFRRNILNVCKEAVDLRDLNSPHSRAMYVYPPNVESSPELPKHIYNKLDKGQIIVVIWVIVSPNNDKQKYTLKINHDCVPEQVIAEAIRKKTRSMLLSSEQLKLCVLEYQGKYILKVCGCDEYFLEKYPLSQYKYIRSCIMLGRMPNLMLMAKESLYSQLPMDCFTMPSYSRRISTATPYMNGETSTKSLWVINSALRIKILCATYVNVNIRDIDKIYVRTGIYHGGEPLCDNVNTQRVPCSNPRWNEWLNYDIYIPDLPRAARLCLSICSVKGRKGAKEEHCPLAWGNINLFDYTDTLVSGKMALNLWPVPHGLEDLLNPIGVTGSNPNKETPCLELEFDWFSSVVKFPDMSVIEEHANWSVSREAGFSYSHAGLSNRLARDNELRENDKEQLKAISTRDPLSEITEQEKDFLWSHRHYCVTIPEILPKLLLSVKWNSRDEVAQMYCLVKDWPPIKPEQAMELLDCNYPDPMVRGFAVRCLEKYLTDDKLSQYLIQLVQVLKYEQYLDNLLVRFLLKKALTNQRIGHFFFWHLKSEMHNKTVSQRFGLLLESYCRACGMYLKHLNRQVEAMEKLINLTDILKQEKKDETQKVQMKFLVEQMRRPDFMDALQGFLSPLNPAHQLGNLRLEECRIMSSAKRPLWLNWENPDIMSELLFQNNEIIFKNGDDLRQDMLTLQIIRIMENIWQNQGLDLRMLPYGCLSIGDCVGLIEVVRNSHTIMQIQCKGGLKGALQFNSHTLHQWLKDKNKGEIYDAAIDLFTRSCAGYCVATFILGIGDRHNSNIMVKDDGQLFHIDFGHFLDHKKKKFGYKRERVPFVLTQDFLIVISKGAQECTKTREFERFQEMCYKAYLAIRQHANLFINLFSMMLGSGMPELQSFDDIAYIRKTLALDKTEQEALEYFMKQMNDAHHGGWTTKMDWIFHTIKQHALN
PI3Kα, sequence (P27986 whole entry partner, species assumed): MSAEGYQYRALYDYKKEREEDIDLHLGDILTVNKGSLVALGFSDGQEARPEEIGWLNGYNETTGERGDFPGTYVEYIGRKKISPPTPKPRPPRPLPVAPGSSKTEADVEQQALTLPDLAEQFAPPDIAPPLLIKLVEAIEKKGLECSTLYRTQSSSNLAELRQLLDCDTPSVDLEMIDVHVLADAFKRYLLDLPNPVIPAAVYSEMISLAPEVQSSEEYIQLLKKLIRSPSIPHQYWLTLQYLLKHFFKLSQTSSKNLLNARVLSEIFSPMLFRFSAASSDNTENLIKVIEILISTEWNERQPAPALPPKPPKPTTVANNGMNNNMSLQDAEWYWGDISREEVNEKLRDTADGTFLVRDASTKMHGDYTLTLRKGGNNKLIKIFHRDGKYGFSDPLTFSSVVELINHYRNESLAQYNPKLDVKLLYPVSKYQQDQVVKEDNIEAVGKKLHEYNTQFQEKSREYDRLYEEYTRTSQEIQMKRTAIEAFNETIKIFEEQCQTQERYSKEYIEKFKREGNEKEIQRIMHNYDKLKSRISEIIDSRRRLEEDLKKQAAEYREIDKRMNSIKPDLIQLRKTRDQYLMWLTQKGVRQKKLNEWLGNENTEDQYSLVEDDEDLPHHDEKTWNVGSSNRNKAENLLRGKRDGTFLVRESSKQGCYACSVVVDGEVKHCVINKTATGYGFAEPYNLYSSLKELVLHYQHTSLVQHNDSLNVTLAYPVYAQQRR

Broadly, the pIC50 is the negative decadic logarithm of the IC50, by convention in mol/L. Usually melting point stands for the temperature of the solid-liquid transition. On to `Cn1cc(/C=C2\Oc3ccc(NC(=O)C(F)(F)F)cc3C2=O)c2c(-c3ccccc3)ccnc21` [Compound 156, 2,2,2-trifluoro-N-{(2Z)-2-[(1-methyl-4-phenyl-1H-pyrrolo[2,3-b]pyridin-3-yl)methylidene]-3-oxo-2,3-dihydro-1-benzofuran-5-yl}acetamide], for which the melting point lay within 295 to 302 °C. The pIC50 on PI3Kα is 5.71. Besides, at mTOR, the pIC50 was 5.78. In addition, the pIC50 on PI3Kγ was 5.16.

Regarding `Cn1cc(/C=C2\Oc3cccc(O)c3C2=O)c2c(-c3ccc(N4CC5CCC(C4)O5)cc3)ccnc21` [Compound 157, (2Z)-4-hydroxy-2-({1-methyl-4-[4-(8-oxa-3-azabicyclo[3.2.1]oct-3-yl)phenyl]-1H-pyrrolo[2,3-b]pyridin-3-yl}methylidene)-1-benzofuran-3(2H)-one], the melting point was 252 to 260 °C (dec.). The negative logarithm of the IC50 (pIC50) on PI3Kα was 7.13. Further, the pIC50 on mTOR is 8.03. Besides, the negative logarithm of the IC50 (pIC50) at PI3Kγ is 7.11.

Consider `CN(C)C(=O)Nc1ccc2c(c1)C(=O)/C(=C/c1cn(C)c3nccc(-c4ccccc4)c13)O2` [Compound 161, 1,1-dimethyl-3-{(2Z)-2-[(1-methyl-4-phenyl-1H-pyrrolo[2,3-b]pyridin-3-yl)methylidene]-3-oxo-2,3-dihydro-1-benzofuran-5-yl}urea], for which the melting point lay within 275 to 280 °C. Besides, the pIC50 at PI3Kα was 5.26. For the same molecule, on mTOR, the pIC50 is 6.40. In addition, the pIC50 at PI3Kγ was less than 5.00.

Molecule `Cn1cc(/C=C2\Oc3ccc(NS(C)(=O)=O)cc3C2=O)c2c(-c3ccccc3)ccnc21` [Compound 162, N-{(2Z)-2-[(1-methyl-4-phenyl-1H-pyrrolo[2,3-b]pyridin-3-yl)methylidene]-3-oxo-2,3-dihydro-1-benzofuran-5-yl}methanesulfonamide] gave a melting point of 257 to 262 °C. In addition, the pIC50 at PI3Kα was 5.23. In addition, on mTOR, the pIC50 was less than 5.40. The pIC50 at PI3Kγ was 5.13.

`CN1CCN(C(=O)C2CCN(c3ccnc4c3c(/C=C3\Oc5cccc(O)c5C3=O)cn4C)CC2)CC1` [Compound 164, (2Z)-4-hydroxy-2-[(1-methyl-4-{4-[(4-methylpiperazin-1-yl)carbonyl]piperidin-1-yl}-1H-pyrrolo[2,3-b]pyridin-3-yl)methylidene]-1-benzofuran-3(2H)-one] registered a melting point of 239 to 244 °C. At PI3Kα, the pIC50 is 7.41. On mTOR, the pIC50 was 8.51. Further, the negative logarithm of the IC50 (pIC50) at PI3Kγ was 6.88.

In the case of `Cn1cc(/C=C2\Oc3ccc(NC(=O)Nc4cccnc4)cc3C2=O)c2c(N3CC4CCC(C3)O4)ccnc21` [Compound 167, 1-[(2Z)-2-{[1-methyl-4-(8-oxa-3-azabicyclo[3.2.1]oct-3-yl)-1H-pyrrolo[2,3-b]pyridin-3-yl]methylidene}-3-oxo-2,3-dihydro-1-benzofuran-5-yl]-3-pyridin-3-ylurea], the melting point is 226 to 230 °C. Moreover, the pIC50 at PI3Kα is 5.68. Moreover, the negative-log IC50 (pIC50) at mTOR was 7.84. The pIC50 on PI3Kγ was less than 5.00.

`CNC(=O)Nc1ccc2c(c1)C(=O)/C(=C/c1cn(C)c3nccc(N4CCC(C(=O)N(C)C)CC4)c13)O2` [Compound 168, N,N-dimethyl-1-{1-methyl-3-[(Z)-{5-[(methylcarbamoyl)amino]-3-oxo-1-benzofuran-2(3H)-ylidene}methyl]-1H-pyrrolo[2,3-b]pyridin-4-yl}piperidine-4-carboxamide] registered a melting point of 203 °C. Moreover, the pIC50 at PI3Kα was 6.38. Further, the pIC50 at mTOR was 8.17. Besides, the pIC50 on PI3Kγ was 6.31.

Molecule `CN(C)C(=O)C1CCN(c2ccnc3c2c(/C=C2\Oc4ccc(Br)cc4C2=O)cn3C)CC1` [Compound 169, 1-{3-[(Z)-(5-bromo-3-oxo-1-benzofuran-2(3H)-ylidene)methyl]-1-methyl-1H-pyrrolo[2,3-b]pyridin-4-yl}-N,N-dimethylpiperidine-4-carboxamide] displayed a melting point of 241 °C. Moreover, the pIC50 on PI3Kα is less than 5.00. For the same molecule, at mTOR, the pIC50 was 7.94. Also, on PI3Kγ, the negative logarithm of the IC50 (pIC50) was 5.93.

For the molecule `CN(C)C(=O)C1CCN(c2ccnc3c2c(/C=C2\Oc4ccc(NC(=O)N5CCOCC5)cc4C2=O)cn3C)CC1` [Compound 170, N-[(2Z)-2-({4-[4-(dimethylcarbamoyl)piperidin-1-yl]-1-methyl-1H-pyrrolo[2,3-b]pyridin-3-yl}methylidene)-3-oxo-2,3-dihydro-1-benzofuran-5-yl]morpholine-4-carboxamide], the melting point worked out at 128 °C. The pIC50 on PI3Kα is 5.51. In addition, the negative-log IC50 (pIC50) on mTOR was 7.04. Moreover, the pIC50 at PI3Kγ was less than 5.00.

`Cn1cc(/C=C2\Oc3ccc(NC(=O)Nc4cccnc4)cc3C2=O)c2c(N3CCC(C(=O)N4CCOCC4)CC3)ccnc21` [Compound 173, 1-[(2Z)-2-({1-methyl-4-[4-(morpholin-4-ylcarbonyl)piperidin-1-yl]-1H-pyrrolo[2,3-b]pyridin-3-yl}methylidene)-3-oxo-2,3-dihydro-1-benzofuran-5-yl]-3-pyridin-3-ylurea] displayed a melting point of 246 to 251 °C. For the same molecule, the pIC50 on PI3Kα was less than 5.00. In addition, the pIC50 at mTOR was 7.74. Further, the pIC50 at PI3Kγ was less than 5.00.

`CNC(=O)Nc1ccc2c(c1)C(=O)/C(=C/c1cn(C)c3nccc(N4CCC(C(=O)N5CCOCC5)CC4)c13)O2` [Compound 174, 1-methyl-3-[(2Z)-2-({1-methyl-4-[4-(morpholin-4-ylcarbonyl)piperidin-1-yl]-1H-pyrrolo[2,3-b]pyridin-3-yl}methylidene)-3-oxo-2,3-dihydro-1-benzofuran-5-yl]urea] returned a melting point of 235 to 240 °C. Also, the pIC50 at PI3Kα is 6.47. At mTOR, the pIC50 is 7.78. Besides, the pIC50 on PI3Kγ was 6.47.

`Cn1cc(/C=C2\Oc3ccc(C(=O)O)cc3C2=O)c2c(-c3ccccc3)ccnc21` [Compound 176, (2Z)-2-[(1-methyl-4-phenyl-1H-pyrrolo[2,3-b]pyridin-3-yl)methylidene]-3-oxo-2,3-dihydro-1-benzofuran-5-carboxylic acid]: the melting point was 329 to 342 °C. Moreover, the pIC50 on PI3Kα was less than 5.00. Further, the pIC50 at mTOR was 6.35. Also, the negative-log IC50 (pIC50) on PI3Kγ is less than 5.00.

`CN(C)CCNC(=O)c1ccc2c(c1)C(=O)/C(=C/c1cn(C)c3nccc(-c4ccccc4)c13)O2` [Compound 187, (2Z)-N-[2-(dimethylamino)ethyl]-2-[(1-methyl-4-phenyl-1H-pyrrolo[2,3-b]pyridin-3-yl)methylidene]-3-oxo-2,3-dihydro-1-benzofuran-5-carboxamide]: the melting point was in the range of 255 to 256 °C. Also, the negative-log IC50 (pIC50) at PI3Kα was 7.47. Besides, at mTOR, the pIC50 is 6.71. Also, on PI3Kγ, the pIC50 was 7.00.

Turning to `CN1CCN(C(=O)Nc2ccc3c(c2)C(=O)/C(=C/c2cn(C)c4nccc(-c5ccccc5)c24)O3)CC1` [Compound 188, 4-methyl-N-{(2Z)-2-[(1-methyl-4-phenyl-1H-pyrrolo[2,3-b]pyridin-3-yl)methylidene]-3-oxo-2,3-dihydro-1-benzofuran-5-yl}piperazine-1-carboxamide], the melting point is 211 to 213 °C. Further, the negative logarithm of the IC50 (pIC50) at PI3Kα was less than 5.00. Also, on mTOR, the negative-log IC50 (pIC50) was 5.61. On PI3Kγ, the pIC50 was less than 5.00.
